Assay results as given in patent publication US11000033B2, “Ketone or oxime compound, and herbicide” (NISSAN CHEMICAL CORPORATION, priority 2014, dated 2021).

Tests used:
Format in all cases: in vivo
Chenopodium album [1] = experiment: Test Example 5: herbicidal effect by foliage application, plastic box (symbol O); details: 320 g/ha, 3 weeks after application
Summary of the method: (§1)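 Emulsion formulation, diluted with water to the intended rate, was applied uniformly to leaves by small sprayer. Recipients were 14-day greenhouse-grown seedlings (25° C. to 30° C.). Assessment followed at 3 weeks.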

Lolium multiflorum Lam. [2] = experiment: Test Example 4: herbicidal effect by soil treatment (symbol K); details: application herbicide amount 320 g/ha
Summary of the method: (§2)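 Seeds were sown in sterilized diluvial soil, covered with about 1.5 cm of soil, and the soil surface was sprayed with a water-diluted emulsion of the compound at a predetermined rate. Plants grew in a greenhouse at 25° C. to 30° C.; effects were scored visually 3 weeks after application.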

Lolium multiflorum Lam. [3] = experiment: Test Example 5: herbicidal effect by foliage application, plastic box (symbol K); details: 320 g/ha, 3 weeks after application
Summary of the method: as §1

wheat = experiment: Test Example 4: effect on crop by soil treatment (symbol e); details: application herbicide amount 320 g/ha
Summary of the method: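 Plants are raised in a greenhouse (25° C. to 30° C.) from spot-sown seed, which sits under about 1.5 cm of sterilized diluvial soil in a box shared with weed species.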

Digitaria ciliaris [4] = experiment: Test Example 5: herbicidal effect by foliage application, plastic box (symbol F); details: 320 g/ha, 3 weeks after application
Summary of the method: as §1

beet = experiment: Test Example 5: effect on crop by foliage application, plastic box (symbol f); details: 320 g/ha, 3 weeks after application
Summary of the method: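 A greenhouse held between 25° C. and 30° C. was used to grow plants sown spot-wise, beneath ~1.5 cm of soil, in boxes of sterilized diluvial soil.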

Digitaria ciliaris [5] = experiment: Test Example 4: herbicidal effect by soil treatment (symbol F); details: application herbicide amount 320 g/ha
Summary of the method: as §2

Veronica persica = experiment: Test Example 4: herbicidal effect by soil treatment (symbol R); details: application herbicide amount 320 g/ha
Summary of the method: as §2

[6] = test system: Echinochloa crus-galli var. crus-galli; experiment: Test Example 3: herbicidal effect by foliage application, Wagner pot (symbol H); details: application herbicide amount 320 g/ha
Summary of the method: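 Seeds sown in alluvial soil kept under 0.1–0.5 cm water, greenhouse 25–30 °C; 14 d growth. Leaves treated by small sprayer with water-diluted emulsion at a predetermined rate. Effect graded by set scale, 3 weeks.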

Stellaria media = experiment: Test Example 5: herbicidal effect by foliage application, plastic box (symbol P); details: 320 g/ha, 3 weeks after application
Summary of the method: as §1

transplanted rice plant = experiment: Test Example 1: effect on crop, application before weed generation in submerged conditions (symbol a); details: application herbicide amount 320 g/ha
Summary of the method: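 Rice at 2.5 leaf stage transplanted into submerged soil (4 cm depth) sown with three weed species; herbicide applied before weed emergence.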

[7] = test system: directly sowed rice plant; experiment: Test Example 3: effect on crop by foliage application, Wagner pot (symbol b); details: application herbicide amount 320 g/ha
Summary of the method: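 Steps: fill a 1/10000-are Wagner pot with alluvial soil; add water and mix to submerge at 0.1–0.5 cm depth; sow rice plus Echinochloa crus-galli var. crus-galli, Leptochloa chinensis and Cyperus difformis; grow in a 25–30 °C greenhouse.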

Amaranthus retroflexus = experiment: Test Example 4: herbicidal effect by soil treatment (symbol N); details: application herbicide amount 320 g/ha
Summary of the method: as §2

Chenopodium album [8] = experiment: Test Example 4: herbicidal effect by soil treatment (symbol O); details: application herbicide amount 320 g/ha
Summary of the method: as §2

Setaria viridis = experiment: Test Example 4: herbicidal effect by soil treatment (symbol G); details: application herbicide amount 320 g/ha
Summary of the method: as §2

Galium spurium = experiment: Test Example 4: herbicidal effect by soil treatment (symbol Q); details: application herbicide amount 320 g/ha
Summary of the method: as §2

Abutilon theophrasti = experiment: Test Example 5: herbicidal effect by foliage application, plastic box (symbol M); details: 320 g/ha, 3 weeks after application
Summary of the method: as §1

Alopecurus myosuroides = experiment: Test Example 5: herbicidal effect by foliage application, plastic box (symbol J); details: 320 g/ha, 3 weeks after application
Summary of the method: as §1

| Structure (SMILES) | O: Chenopodium album, herbicidal effect (criteria of Test Example 1) (Chenopodium album [1]) | Herbicidal effect grade, K: Lolium multiflorum Lam. (Lolium multiflorum Lam. [2]) | K: Lolium multiflorum Lam., herbicidal effect (criteria of Test Example 1) (Lolium multiflorum Lam. [3]) | Effect on crop grade, e: wheat (wheat) | F: Digitaria ciliaris, herbicidal effect (criteria of Test Example 1) (Digitaria ciliaris [4]) | f: beet, effect on crop (criteria of Test Example 1) (beet) | Herbicidal effect grade, F: Digitaria ciliaris (Digitaria ciliaris [5]) | Herbicidal effect grade, R: Veronica persica (Veronica persica) | herbicidal effect on H (Echinochloa crus-galli var. crus-galli), grade 0-5 [6] | P: Stellaria media, herbicidal effect (criteria of Test Example 1) (Stellaria media) | Effect grade on crop, a: transplanted rice plant (transplanted rice plant) | effect on crop b (directly sowed rice plant), grade 0-5 [7] | Herbicidal effect grade, N: Amaranthus retroflexus (Amaranthus retroflexus) | Herbicidal effect grade, O: Chenopodium album (Chenopodium album [8]) | Herbicidal effect grade, G: Setaria viridis (Setaria viridis) | Herbicidal effect grade, Q: Galium spurium (Galium spurium) | M: Abutilon theophrasti, herbicidal effect (criteria of Test Example 1) (Abutilon theophrasti) | J: Alopecurus myosuroides, herbicidal effect (criteria of Test Example 1) (Alopecurus myosuroides) |
| --- | --- | --- | --- | --- | --- | --- | --- | --- | --- | --- | --- | --- | --- | --- | --- | --- | --- | --- |
| CON=C(C)CC1CC(O)=C(c2c(C)cc(-c3cc(Cl)cc(Cl)c3)cc2C)C1=O (stereo not drawn) [6-087] | 0 (Herbicidal ratio of 5% or lower (almost no effect)) | 3 (Herbicidal ratio of 40% or higher and lower than 70%) | 4 (Herbicidal ratio of 70% or higher and lower than 90%) | 0 (Herbicidal ratio of 5% or lower (almost no effect)) | 5 (Herbicidal ratio of 90% or more (almost completely withered)) | 0 (Herbicidal ratio of 5% or lower (almost no effect)) | 5 (Herbicidal ratio of 90% or more (almost completely withered)) | 2 (Herbicidal ratio of 20% or higher and lower than 40%) | 5 (Herbicidal ratio of 90% or more (almost completely withered)) | 1 (Herbicidal ratio of 5% or higher and lower than 20%) | 2 (Herbicidal ratio of 20% or higher and lower than 40%) | 5 (Herbicidal ratio of 90% or more (almost completely withered)) | 0 (Herbicidal ratio of 5% or lower (almost no effect)) | 0 (Herbicidal ratio of 5% or lower (almost no effect)) | 5 (Herbicidal ratio of 90% or more (almost completely withered)) | 0 (Herbicidal ratio of 5% or lower (almost no effect)) | 0 (Herbicidal ratio of 5% or lower (almost no effect)) | 4 (Herbicidal ratio of 70% or higher and lower than 90%) |
| CON=C(C)C(C)C1CC(O)=C(c2c(C)cc(Br)cc2OC)C1=O (stereo not drawn) [6-113] | 2 (Herbicidal ratio of 20% or higher and lower than 40%) | 5 (Herbicidal ratio of 90% or more (almost completely withered)) | 5 (Herbicidal ratio of 90% or more (almost completely withered)) | 0 (Herbicidal ratio of 5% or lower (almost no effect)) | 5 (Herbicidal ratio of 90% or more (almost completely withered)) | 0 (Herbicidal ratio of 5% or lower (almost no effect)) | 5 (Herbicidal ratio of 90% or more (almost completely withered)) | 0 (Herbicidal ratio of 5% or lower (almost no effect)) | 5 (Herbicidal ratio of 90% or more (almost completely withered)) | 0 (Herbicidal ratio of 5% or lower (almost no effect)) | 5 (Herbicidal ratio of 90% or more (almost completely withered)) | 5 (Herbicidal ratio of 90% or more (almost completely withered)) | 0 (Herbicidal ratio of 5% or lower (almost no effect)) | 0 (Herbicidal ratio of 5% or lower (almost no effect)) | 5 (Herbicidal ratio of 90% or more (almost completely withered)) | 0 (Herbicidal ratio of 5% or lower (almost no effect)) | 0 (Herbicidal ratio of 5% or lower (almost no effect)) | 5 (Herbicidal ratio of 90% or more (almost completely withered)) |
| CC(=O)CC1CC(O)=C(c2c(C)cc(-c3ccc(C(F)(F)F)cc3)cc2C)C1=O (stereo not drawn) [7-005] | 3 (Herbicidal ratio of 40% or higher and lower than 70%) | 2 (Herbicidal ratio of 20% or higher and lower than 40%) | 5 (Herbicidal ratio of 90% or more (almost completely withered)) | 0 (Herbicidal ratio of 5% or lower (almost no effect)) | 5 (Herbicidal ratio of 90% or more (almost completely withered)) | 0 (Herbicidal ratio of 5% or lower (almost no effect)) | 5 (Herbicidal ratio of 90% or more (almost completely withered)) | 0 (Herbicidal ratio of 5% or lower (almost no effect)) | 5 (Herbicidal ratio of 90% or more (almost completely withered)) | 1 (Herbicidal ratio of 5% or higher and lower than 20%) | 1 (Herbicidal ratio of 5% or higher and lower than 20%) | 5 (Herbicidal ratio of 90% or more (almost completely withered)) | 0 (Herbicidal ratio of 5% or lower (almost no effect)) | 0 (Herbicidal ratio of 5% or lower (almost no effect)) | 0 (Herbicidal ratio of 5% or lower (almost no effect)) | 0 (Herbicidal ratio of 5% or lower (almost no effect)) | 0 (Herbicidal ratio of 5% or lower (almost no effect)) | 2 (Herbicidal ratio of 20% or higher and lower than 40%) |
